Experimental data reported in publication PMC8317065, “UPLC-MS/MS Method for Analysis of Endocannabinoid and Related Lipid Metabolism in Mouse Mucosal Tissue” (Frontiers in Physiology, 2021).

Test system: DGL
Test: DGL (MAG biosynthetic enzyme) activity assay, UPLC-MS/MS, jejunum epithelium protein isolates
Type: biochemical, mouse
Conditions: jejunum epithelium protein 50 μg
Description: Homogenized samples were centrifuged at 800 × g for 15 m at 4°C. The supernatant was collected in a 2.0 mL centrifuge tube and sonicated twice for 10 s. Samples underwent two sequential freeze thaw cycles using liquid N2. Samples were again centrifuged at 800 × g, 15 min, 4°C and the supernatant was collected. Total protein was then quantified via BCA assay and normalized between all samples. Protein isolations for each assay and each tissue were performed separately.
Substrate solutions were prepared by drying stock 19:2 DAG (20 nmol/reaction) under N2 steam (99.998% pure) and reconstituted in a solution of 50 mM Tris–HCl with 0.2% Triton x-100 (pH = 7.0). This solution was bath sonicated for 60 min at room temperature while protein samples were prepared. […] The products of the reaction were extracted via lipid extraction methods (see section “Lipid Extraction for Enzyme Assays”) and quantified via UPLC-MS/MS (see section “Quantitation of MAG Biosynthetic Enzyme Activity Assay Products”).
Lipids were extracted using liquid-liquid extraction with chloroform (2.0 mL) followed by 0.8 mL 0.2-micron ultra-purified water. […] Products were detected and quantified via UPLC-MS/MS techniques (see section “UPLC-MS/MS Detection of Analytes”). […]

## CCCCCCCCCCC[C@@H](C[C@@H]1OC(=O)[C@H]1CCCCCC)OC(=O)[C@H](CC(C)C)NC=O [THL, tetrahydrolipstatin]
Highest inhibitor concentration of range (1,000 nM)
  DGL activity (normalized response): 20.39 ± 6.65%
Lowest inhibitor concentration of range (3 nM)
  DGL activity (normalized response): 108.85 ± 6.19%
